Like-named read-outs stand apart in the source and are kept apart here.
Assays:
[1] = cited from earlier work
[2] = P-4135F, cited from earlier work
[3] = Loading of doxorubicin and irinotecan into the same high AMPS beads (depletion, UV); format: physicochemical; conditions: 1 ml high AMPS beads
Experimental: Five samples of 500-700 μm High AMPS beads of Example 1 were loaded with doxorubicin and irinotecan following different approaches:
Sample 1: 3.5 mL of irinotecan solution (Campto, Pfizer, 20 mg.mL^−1=70 mg) was loaded into 1 mL of beads for 48 h, to saturate all the sulfonate groups. Then, the depleted solution was removed and the loaded beads were washed with a known volume of deionised water to remove the non-bound drug. The amount of irinotecan loaded into the beads was calculated by depletion, as a difference between the initial and final amounts in the depleted solution and all washings measured by UV at a wavelength of 369 nm. One mL of doxorubicin (Dabur oncology-25 mg.ml^−1) was later added to the same beads and the loading profile determined. […] All solutions were measured by UV at a wavelength of 483 nm wavelength and the amount of drug loaded into the beads determined by depletion. After the beads were loaded and washed with deionised water, in a second step, 1.25 ml of irinotecan solution (20 mg.mL^−1=25 mg) was added to the same beads and the loading profile determined. […]
To determine the loading profiles of all samples, an aliquot of 50 μl was removed from each vial at time 5, 15, 30, 45 min after the addition of each drug, diluted as necessary and read by UV at 483 and 369 nm. […]

[4] = Elution of doxorubicin and irinotecan from the same beads into 200 ml PBS; format: physicochemical; conditions: all samples
Experimental: After being sized, all samples were eluted. Here, the remaining loading solutions were removed using a Pasteur pipette and the loaded beads were transferred to brown flasks containing 200 ml of PBS (Inverclyde Biologicals). At time 5, 15, 30, 45, 60, 90 min, 2 h, 4 h and 24 h, an aliquot of elution medium (4 ml) was removed and replaced with 4 mL of fresh PBS to maintain the volume. All samples were read by UV at 483 and 369 nm wavelengths, using the corresponding standard curves to calculate the amount eluted at each time point.
These two assumptions were made for all calculations. All samples were read at both 483 nm and 369 nm wavelengths. Using the absorbance and the standard curve of doxorubicin at 483 nm, the concentration of doxorubicin in each sample was calculated and using these concentrations and the standard curve of doxorubicin at 369 nm, the absorbance of doxorubicin at this wavelength was calculated.

[5] = Loading of doxorubicin into ibuprofen-loaded low AMPS beads (depletion); format: physicochemical
Experimental: Ibuprofen and doxorubicin solutions were loaded into low AMPS beads simultaneously. In order to achieve this, one sample of 1 ml of 500-700 μm beads was loaded with ibuprofen (according to examples in WO2004073688). The excess packaging solution was removed using a Pasteur pipette and 2 ml of doxorubicin solution (5 mg.ml^−1) were added. After 24 h, a 50 μl aliquot was removed from the depleted solution and measured by UV at 263 nm and 483 nm. The amount of doxorubicin loaded into beads was calculated by depletion, as a difference between the initial and final amounts in the depleted solution (calculations explained below).
These two assumptions were made for all calculations. All samples were read at both wavelengths (263 nm and 483 nm). Using the absorbance at 483 nm the concentration of doxorubicin in each sample was calculated, then using these concentrations and the standard curve of doxorubicin at 263 nm, the absorbance of doxorubicin at 263 nm was calculated. By subtracting this value from the total absorbance at 263 nm, the concentration of ibuprofen, was calculated using the ibuprofen standard curve.
Initially, lyophilised beads as described in WO2004073688 were loaded with ibuprofen/ethanol solution by solvent evaporation and then rehydrated with water and autoclaved for 15 min at 121° C. […]

HepG2 cells = assay: MTS cell viability assay with drug loaded beads; format: cell-based, human; conditions: Example 8, MTS, 72 hr exposure
Experimental: An MTS assay was also conducted on the wells. At 72 hrs, the media from all wells was cautiously removed and each well washed three times with 200 μl sterile PBS. After adding 100 μl PRF media to each well, 20 μl of the prepared MTS solution (Promega) was also added. After a two hours incubation (37° C., 5% CO2) the plate was read at 490 nm using the plate reader and like the LDH assay, if the reading was too high the samples were diluted (75 μl PRF media: 75 μl samples).
Example 7 was repeated substantially as described, with an extended number of beads of one of the drugs. The results of the MTS assay, i.e. showing cell viability % (log scale) of HepG2 cells after 72 hr exposure, concluded as the mean of 6 samples, is shown in FIG. 19.
An MTS assay was used to assess the synergistic cytotoxic effects of dual loaded beads on HepG2 and PSN1 cells. The rapamycin loaded beads and the doxorubicin loaded beads were the same as those described in Example 7. The dual loaded doxorubicin and rapamycin loaded beads were loaded and analysed as described in Example 4 Method 2 using a 1 ml 60 mg/ml rapamycin solution and 1 ml 37.5 mg/ml doxorubicin solution.
The assay was prepared as described in Example 7 using HepG2 cells and additional plates of PSN1 cells for analysis.
An MTS assay (described in example 7) was conducted after 24, 48 and 72 hrs exposure. […]

[6] = Rapamycin and doxorubicin loading into high AMPS beads by two methods; format: physicochemical; conditions: Method 2
Experimental: Unloaded high AMPS bead slurry 1 ml was loaded with doxorubicin solution (5 ml of 10.07 mg/ml, target loading 50 mg/ml Bead) overnight. The doxorubicin-loaded beads were washed with 1 ml DMSO 5 times to remove extra water, and 1 ml 60 mg/mL rapamycin DMSO solution was mixed with the doxorubicin beads for about 30 min. Subsequently, following removal of extra rapamycin DMSO solution, the beads were washed with 5 ml saline until no white drug particles were observed.
1 ml Bead slurry was washed with 1 mL DMSO 5 times and mixed with 1 ml 60 mg/ml rapamycin DMSO solution for 30 min. The loaded beads were then washed with 5 ml saline until no further white drug particles were observed. […]
Doxorubicin loading test: The doxorubicin loading was measured by depletion method in either water or DMSO solution. The loading solution was taken and diluted 10 times and measured by UV at 483 nm to determine the concentration of doxorubicin residue in solution. […] The concentration of rapamycin was determined by UV at 279 nm. […]
Doxorubicin loss determination: The doxorubicin loss during DMSO washing of loaded beads before further loading of rapamycin (Method 2) was determined by measuring the accumulated DMSO washing solution in a volumetric flask at 483 nm. […]
Rapamycin and doxorubicin standard curve: The maximum absorbance of rapamycin is at wavelength 279 nm, which is overlapped with doxorubicin absorbance. […]

[7] = cited from earlier work; remark: listed apart in the source
[8] = Elution of ibuprofen-irinotecan-loaded beads into PBS; format: physicochemical; conditions: after 5 hours, irinotecan alone, combination comparable
Experimental: The elution of ibuprofen-irinotecan-loaded beads was carried out by mixing 0.24 ml beads with 200 ml PBS (Inverclyde, Bellshill, UK) and roller-mixed on a roller mixer. At certain time point, the solution (5 ml) was taken out for concentration determination by UV and same volume of fresh PBS was added to keep a sink condition.

[9] = Ibuprofen and irinotecan loading into high AMPS beads; format: physicochemical
Experimental: Drug loading: The drug loading procedure is shown in FIG. 9, in which the unloaded high AMPS beads were washed with DMSO to remove the water trapped within the hydrogel. A mixture of ibuprofen solubilised in DMSO and castor oil as crystallisation inhibitor were subsequently mixed with the bead slurry, and kept for about 10 minutes. Following the removal of the loading solution, saline was used to wash the loaded beads until no drug particles nor large oil droplets were observed. The irinotecan loading was achieved by simply mixing the ibuprofen-loaded beads with irinotecan solution (10 mg/mL) by roller-mixing overnight. The final loaded beads were kept in the water solution as product.
1). Ibuprofen. The content of loaded ibuprofen was determined by an HPLC method. […] The collected DMSO solution was topped to the mark in a 10 ml volumetric flask, and the concentration of ibuprofen was measured by HPLC. […] The content of irinotecan in loaded beads was measured by depletion method. […] The loading solution was diluted with water and measured by UV at 369 nm. Compared to the standard curve, the concentration of irinotecan left in loading solution can be calculated.
To determinate the concentration of each component in a combined drug solution, the standard curves for absorption of predetermined concentrations of ibuprofen and irinotecan at 263, 272 and 369 nm in water were measured. […]

[10] = cited from earlier work; remark: listed apart in the source

For `Nc1nc2c(c(=O)[nH]1)N(C=O)C(CNc1ccc(C(=O)N[C@@H](CCC(=O)O)C(=O)O)cc1)CN2` (some centres unmarked) [LV, leucovorin], the encapsulation rate ([1]; Eudragit P-4135F) is listed as 55.4±2.7%, the encapsulation rate ([1]; Eudragit RS100) is listed as 81.4±8.6% and the initial drug loss ([2]; pH 6.8) is listed as “about 60%”. For the same compound, the “time to complete release” value ([2]; pH 6.8) was ≤ 2 h.

In the case of `COc1cccc2c1C(=O)c1c(O)c3c(c(O)c1C2=O)C[C@@](O)(C(=O)CO)C[C@@H]3O[C@H]1C[C@H](N)[C@H](O)[C@H](C)O1` [doxorubicin], the “maximum loading capacity of the beads” value [3] is reported as ~40 mg, the doxorubicin released ([4]; in 24 h) is reported as < 25% and the “maximum amount of doxorubicin loaded into ibuprofen loaded beads” value ([5]; 1 ml low AMPS beads, doxorubicin solution 5 mg/ml, 24 h) is reported as 8.3 mg. The “maximum capacity of low AMPS beads for doxorubicin” value ([5]; loaded with this drug alone) was ~14 mg/mL, the “cytotoxicity when eluted individually” value (HepG2 cells) was “more cytotoxic to the cells than rapamycin” and the “doxorubicin loss during DMSO washing before rapamycin loading” value [6] was “about 6.71 mg/ml”.

For heparin, the “initial burst release from the co-matrix” value ([7]; uncoated) is given as 32.7% and the “initial burst release from the co-matrix” value ([7]; with polyethylene glycol coatings, for 24 hr) is given as 25.4%.

For `CCc1c2c(nc3ccc(OC(=O)N4CCC(N5CCCCC5)CC4)cc13)-c1cc3c(c(=O)n1C2)COC(=O)[C@]3(O)CC` [irinotecan], the “maximum loading capacity of the beads” value [3] was 52 mg, the irinotecan released ([4]; in <4 h) was > 99 % mg and the irinotecan eluted [8] was ~100%. For the same compound, the “maximum irinotecan loading capacity for unloaded beads” value [9] was 50 to 60 mg/mL and the irinotecan loading efficiency ([9]; unloaded beads, below maximum loading capacity) was “above 98%”.

For `O=c1[nH]cc(F)c(=O)[nH]1` [Sample 5-FU, 5-fluorouracil], the encapsulation rate ([1]; Eudragit P-4135F) is given as 48.3±2.0%, the encapsulation rate ([1]; Eudragit RS100) is given as 60.3±9.7% and the 5-FU release ([2]; pH 6.8, within 4 h) is given as “lower than 25%”. The “time of nearly immediate release” value ([2]; pH 7.4) was ≤ 15 min, the encapsulation efficiency ([10]; PLGA microparticles) was 19% and the encapsulation efficiency ([10]; encapsulated with Paclitaxel) was 30%.

From US20110229572A1, “DELIVERY OF DRUG COMBINATIONS” (BIOCOMPATIBLES UK Limited, priority 2007, published 2011)
